Results reported in PMC9007462 (Journal of Medicinal Chemistry, 2022).

How the values were obtained:
LNCaP = assay: MTT chemosensitivity assay, LNCaP; type: cell-based, human; conditions: Homo sapiens, LNCaP, 96 h exposure, ± SD, at least three independent experiments
Human ALDH1A3 = target: T1, Human ALDH1A3 (Homo sapiens, UniProt P47895); assay: ALDH1A3 inhibition, IC50, Ki and type of inhibition; type: biochemical; conditions: for IC50: 6 μM hexanal as substrate
T1 construct: made in house
T1 sequence (P47895 1-512): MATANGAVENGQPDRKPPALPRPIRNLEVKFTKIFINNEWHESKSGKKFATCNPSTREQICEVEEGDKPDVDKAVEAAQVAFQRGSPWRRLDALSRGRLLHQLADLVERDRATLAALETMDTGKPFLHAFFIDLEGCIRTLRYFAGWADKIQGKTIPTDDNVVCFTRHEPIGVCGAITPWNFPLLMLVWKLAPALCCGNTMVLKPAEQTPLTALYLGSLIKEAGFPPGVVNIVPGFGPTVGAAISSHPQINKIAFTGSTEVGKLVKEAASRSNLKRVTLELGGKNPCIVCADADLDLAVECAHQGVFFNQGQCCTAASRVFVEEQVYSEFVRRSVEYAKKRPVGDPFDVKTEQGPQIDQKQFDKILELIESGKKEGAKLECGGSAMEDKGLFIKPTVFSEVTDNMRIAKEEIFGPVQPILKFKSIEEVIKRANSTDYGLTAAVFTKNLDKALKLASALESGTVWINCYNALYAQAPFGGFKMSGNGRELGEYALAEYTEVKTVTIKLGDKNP

Human ALDH3A1 = target: T2, Human ALDH3A1 (Homo sapiens, UniProt P30838); assay: DEAB analogues as substrates of ALDH3A1 (substrate activity and kinetics); type: biochemical; conditions: for ALDH3A1 substrate activity: 10 μM compound as substrate, relative to activity with 10 μM 4-NBA (Figure S2)
T2 construct: made in house
T2 sequence (P30838 1-453): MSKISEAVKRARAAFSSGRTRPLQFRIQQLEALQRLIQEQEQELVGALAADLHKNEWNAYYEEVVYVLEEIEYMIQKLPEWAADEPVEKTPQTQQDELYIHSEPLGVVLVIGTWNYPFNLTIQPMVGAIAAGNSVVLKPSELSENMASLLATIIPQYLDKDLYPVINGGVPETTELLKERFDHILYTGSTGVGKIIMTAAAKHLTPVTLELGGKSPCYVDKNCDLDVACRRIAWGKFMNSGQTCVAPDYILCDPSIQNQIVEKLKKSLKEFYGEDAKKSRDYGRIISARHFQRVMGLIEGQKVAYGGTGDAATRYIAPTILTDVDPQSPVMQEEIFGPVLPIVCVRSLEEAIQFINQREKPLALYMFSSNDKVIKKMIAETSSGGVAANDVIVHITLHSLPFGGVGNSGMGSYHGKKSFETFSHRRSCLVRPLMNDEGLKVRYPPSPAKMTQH
Experimental: Human ALDH1A1, ALDH1A3, and ALDH3A1 were cloned and recombinantly expressed from the pET-30 Xa/LIC vector. Protein purification was achieved by affinity chromatography on a nickel-charged chelating Sepharose Fast Flow 5-mL column (His Trap column, Cytiva), which specifically binds the protein due to its N-terminal (His)6 tag, using an ÄKTA FPLC system (Cytiva), as previously described.[55] Enzymes including the His tag were stored at −80 °C in 20 mM Tris/HCl and 0.5 M NaCl, pH 8.0, until use. Reaction buffers were as follows: ALDH1A1 was assayed in 50 mM HEPES, 0.5 mM EDTA, and 0.5 mM DTT, pH 8.0; ALDH1A3 was assayed in 50 mM HEPES, 30 mM MgCl2, and 5 mM DTT, pH 8.0; and ALDH3A1 was assayed in 50 mM Tris–HCl and 5 mM DTT, pH 8.0. Activity under standard conditions was measured fluorimetrically at 25 °C using a Cary Eclipse (Varian) fluorimeter to follow the purification procedure and to check the enzyme concentration before each kinetic experiment. The fluorescence of NADH was characterized at 460 nm with excitation at 340 nm, and 5 μM NAD(P)H was added as an internal standard to obtain the absolute reaction rates.[55] Standard activity was measured at saturating concentrations of substrate using 30 μM hexanal (ALDH1A1), 250 μM hexanal (ALDH1A3), or 250 μM 4-NBA (ALDH3A1). NAD^+ was 500 μM for ALDH1A1 and ALDH1A3, and NADP^+ was 1 mM for ALDH3A1.
According to their structure with a carbonyl group, compounds were tested for their substrate properties against ALDH1A1, ALDH1A3, and ALDH3A1. […] Results are expressed as the percentage of activity at 10 μM versus the activity at 10 μM of their standard substrate (hexanal or 4-NBA). Values are expressed as the mean ± SE.
To calculate the Km value of compound 18 as a substrate for ALDH3A1, several concentrations of compound 18 were used. Experimental values were fitted to the adaptation of the Michaelis–Menten equation for substrate inhibition [drawing 1] and shown as the mean ± SE.

| Ksi as ALDH3A1 substrate (Human ALDH3A1; fit to substrate inhibition equation, mean ± SE) [µM] | Km (Human ALDH3A1; mean ± SE) [µM] | kcat as ALDH3A1 substrate (Human ALDH3A1; mean ± SE) [min^–1] | Compound | IC50 (LNCaP) [µM] | IC50 (Human ALDH1A3; mean ± SE) [µM] | ALDH3A1 substrate activity (Human ALDH3A1) | type of inhibition ALDH1A3 (Human ALDH1A3; hexanal as substrate) | Ki (Human ALDH1A3; hexanal as substrate, fit to competitive inhibition equation, mean ± SE) [µM] | fold difference in capacity to inhibit ALDH1A3, 14 vs 13 (Human ALDH1A3; ratio of IC50 values) |
| --- | --- | --- | --- | --- | --- | --- | --- | --- | --- |
| 113 ± 25 | 2.82 ± 0.35 | 13.4 ± 0.7 | CCCN(CCC)c1ccc(C=O)cc1[N+](=O)[O-] [Compound 18, 4-(Dipropylamino)-3-Nitrobenzaldehyde] | 31 ± 6 | 106 ± 16 | 4.21% |  |  |  |
|  |  |  | CCCN(CCC)c1ccc(C=O)cc1Br [Compound 14, 3-Bromo-4-(dipropylamino)benzaldehyde] | 25 ± 1 | 0.63 ± 0.02 | lower than 5% | competitive | 0.46 ± 0.15 | approximately 17 fold |
